Reference: patent publication US9708314B2, “Heterocyclic amide compound” (NISSAN CHEMICAL INDUSTRIES, LTD., priority 2013, dated 2017)

Key:
Assay type in all cases: in vivo
[1] = system: Alopecurus myosuroides; assay: Test Example 4: herbicidal effect by application to foliage (diluvial soil, plastic box); details: foliage application, 320 g/ha
In short: (§1)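 Seeds sown in sterilized diluvial soil, covered ~1.5 cm, grown 14 days in greenhouse at 25° C. to 30° C. Emulsion formulation diluted in water to set rate (g/ha) and sprayed onto stems and leaves. Effect scored visually 3 weeks later on 0–5 scale (5 = ≥90% herbicidal ratio, 0 = ≤5%).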

[2] = system: Setaria viridis; assay: as above; details: foliage application, 320 g/ha
In short: as §1

[3] = system: Stellaria media; assay: as above; details: foliage application, 320 g/ha
In short: as §1

[4] = system: Lolium multiflorum Lam.; assay: as above; details: foliage application, 320 g/ha
In short: as §1

[5] = system: Amaranthus retroflexus; assay: as above; details: foliage application, 320 g/ha
In short: as §1

[6] = system: Digitaria ciliaris; assay: as above; details: foliage application, 320 g/ha
In short: as §1

[7] = system: Monochoria vaginalis; assay: Test Example 1: herbicidal activity, application before weed generation in submerged conditions; details: Application herbicide amount 320 g/ha; Seventeenth Table
In short: (§2)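 Pre-emergence water-surface application under 4 cm flooding, same day as sowing, with rice transplanted at 2.5 leaf stage. Dose given as g/ha. Plants grown at 25° C. to 30° C. and rated three weeks later on a 0 (≤5%) to 5 (≥90%) herbicidal-ratio scale.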

[8] = system: Echinochloa oryzacola Vasing.; assay: as above; details: Application herbicide amount 320 g/ha; Seventeenth Table
In short: as §2

[9] = system: Scirpus juncoides; assay: as above; details: Application herbicide amount 320 g/ha; Seventeenth Table
In short: as §2

SMILES | J (Alopecurus myosuroides) herbicidal effect grade [1] | G (Setaria viridis) herbicidal effect grade [2] | P (Stellaria media) herbicidal effect grade [3] | K (Lolium multiflorum Lam.) herbicidal effect grade [4] | N (Amaranthus retroflexus) herbicidal effect grade [5] | F (Digitaria ciliaris) herbicidal effect grade [6] | C: Monochoria vaginalis (herbicidal effect grade) [7] | A: Echinochloa oryzicola Vasing. (herbicidal effect grade) [8] | B: Scirpus juncoides (herbicidal effect grade) [9]
Cn1nnnc1NC(=O)c1ccc(C(F)(F)F)n2c(CC[S+](C)[O-])nnc12 (stereo not drawn) [2-058] | 4 (Herbicidal ratio of 70% or more and less than 90%) | 5 (Herbicidal ratio of 90% or more (almost completely withered)) | 5 (Herbicidal ratio of 90% or more (almost completely withered)) | 4 (Herbicidal ratio of 70% or more and less than 90%) | 5 (Herbicidal ratio of 90% or more (almost completely withered)) | 5 (Herbicidal ratio of 90% or more (almost completely withered)) | 5 (Herbicidal ratio of 90% or more (almost completely withered)) | 4 (Herbicidal ratio of 70% or more and less than 90%) | 4 (Herbicidal ratio of 70% or more and less than 90%)
Cn1nnnc1NC(=O)c1ccc(C(F)(F)F)n2c(CCS(C)(=O)=O)nnc12 [2-059] | 4 (Herbicidal ratio of 70% or more and less than 90%) | 5 (Herbicidal ratio of 90% or more (almost completely withered)) | 5 (Herbicidal ratio of 90% or more (almost completely withered)) | 4 (Herbicidal ratio of 70% or more and less than 90%) | 5 (Herbicidal ratio of 90% or more (almost completely withered)) | 5 (Herbicidal ratio of 90% or more (almost completely withered)) | 4 (Herbicidal ratio of 70% or more and less than 90%) | 4 (Herbicidal ratio of 70% or more and less than 90%) | 4 (Herbicidal ratio of 70% or more and less than 90%)
Cn1nnnc1NC(=O)c1ccc(C(F)(F)F)n2c(-c3ccc(Cl)nc3)nnc12 [2-060] | 3 (Herbicidal ratio of 40% or more and less than 70%) | 5 (Herbicidal ratio of 90% or more (almost completely withered)) | 5 (Herbicidal ratio of 90% or more (almost completely withered)) | 3 (Herbicidal ratio of 40% or more and less than 70%) | 5 (Herbicidal ratio of 90% or more (almost completely withered)) | 5 (Herbicidal ratio of 90% or more (almost completely withered)) | 5 (Herbicidal ratio of 90% or more (almost completely withered)) | 5 (Herbicidal ratio of 90% or more (almost completely withered)) | 5 (Herbicidal ratio of 90% or more (almost completely withered))
Cn1nnnc1NC(=O)c1ccc(C(F)(F)F)n2c(-c3cccs3)nnc12 [2-061] | 3 (Herbicidal ratio of 40% or more and less than 70%) | 5 (Herbicidal ratio of 90% or more (almost completely withered)) | 5 (Herbicidal ratio of 90% or more (almost completely withered)) | 4 (Herbicidal ratio of 70% or more and less than 90%) | 5 (Herbicidal ratio of 90% or more (almost completely withered)) | 5 (Herbicidal ratio of 90% or more (almost completely withered)) | 5 (Herbicidal ratio of 90% or more (almost completely withered)) | 5 (Herbicidal ratio of 90% or more (almost completely withered)) | 5 (Herbicidal ratio of 90% or more (almost completely withered))
